Test results: patent US10870647B2, “Imidazopyridine derivative, method for preparing same, and pharmaceutical composition containing same as active ingredient for preventing or treating cancer” (DAEGU-GYEONGBUK MEDICAL INNOVATION FOUNDATION, priority 2016, dated 2020)

Tests used:
Assay in all cases: Kinase selectivity, scanMAX Kinase assay panel (DiscoverX), % control at 1 uM
Type in all cases: binding
[1] = molecular target: T1, scanMAX Kinase assay panel (Homo sapiens, UniProt O95382); conditions: ASK2; 1 uM; read-out: Percent Control (%)
T1 construct: purchased DiscoverX
T1 sequence (O95382 1-1288): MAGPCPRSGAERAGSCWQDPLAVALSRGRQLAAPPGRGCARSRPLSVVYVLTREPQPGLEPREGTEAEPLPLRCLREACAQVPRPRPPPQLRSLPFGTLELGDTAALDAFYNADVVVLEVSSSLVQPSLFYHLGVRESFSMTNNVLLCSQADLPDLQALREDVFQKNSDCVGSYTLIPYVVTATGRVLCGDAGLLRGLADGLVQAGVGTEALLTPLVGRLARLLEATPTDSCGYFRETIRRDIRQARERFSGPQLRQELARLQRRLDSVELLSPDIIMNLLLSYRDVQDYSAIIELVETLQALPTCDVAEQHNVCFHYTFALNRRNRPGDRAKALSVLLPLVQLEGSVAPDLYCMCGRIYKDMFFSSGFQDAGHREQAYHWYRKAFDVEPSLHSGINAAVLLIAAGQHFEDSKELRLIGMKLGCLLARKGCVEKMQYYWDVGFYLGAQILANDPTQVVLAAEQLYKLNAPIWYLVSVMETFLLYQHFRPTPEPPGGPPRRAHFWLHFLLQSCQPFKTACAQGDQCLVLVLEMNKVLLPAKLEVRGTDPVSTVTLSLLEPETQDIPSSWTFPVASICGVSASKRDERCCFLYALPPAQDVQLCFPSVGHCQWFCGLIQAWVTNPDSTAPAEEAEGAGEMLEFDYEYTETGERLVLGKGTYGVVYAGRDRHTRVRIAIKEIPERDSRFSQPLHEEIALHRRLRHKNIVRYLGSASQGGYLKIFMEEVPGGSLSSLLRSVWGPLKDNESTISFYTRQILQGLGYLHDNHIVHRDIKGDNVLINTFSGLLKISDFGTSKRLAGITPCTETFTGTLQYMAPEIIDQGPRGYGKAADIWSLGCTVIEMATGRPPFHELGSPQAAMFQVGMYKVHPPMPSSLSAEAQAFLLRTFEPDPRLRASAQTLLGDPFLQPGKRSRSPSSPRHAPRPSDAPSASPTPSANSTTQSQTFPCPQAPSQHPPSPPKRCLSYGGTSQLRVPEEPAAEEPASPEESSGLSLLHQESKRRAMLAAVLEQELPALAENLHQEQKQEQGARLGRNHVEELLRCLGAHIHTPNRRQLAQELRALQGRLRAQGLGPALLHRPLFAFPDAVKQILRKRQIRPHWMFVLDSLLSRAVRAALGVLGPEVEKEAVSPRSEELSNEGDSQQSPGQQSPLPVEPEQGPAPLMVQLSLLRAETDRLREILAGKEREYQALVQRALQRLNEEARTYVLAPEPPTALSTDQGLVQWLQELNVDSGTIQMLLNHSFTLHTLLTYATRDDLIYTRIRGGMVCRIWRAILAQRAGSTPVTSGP
Procedure, shortened: (§1)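 Single-point screen at 1 uM compound in DMSO. Lower % control means stronger inhibition, with the cutoff for activity set at <35%.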

[2] = molecular target: T2, scanMAX Kinase assay panel (Homo sapiens, UniProt P06241); conditions: FYN; 1 uM; read-out: Percent Control (%)
T2 construct: purchased DiscoverX
T2 sequence (P06241 whole entry): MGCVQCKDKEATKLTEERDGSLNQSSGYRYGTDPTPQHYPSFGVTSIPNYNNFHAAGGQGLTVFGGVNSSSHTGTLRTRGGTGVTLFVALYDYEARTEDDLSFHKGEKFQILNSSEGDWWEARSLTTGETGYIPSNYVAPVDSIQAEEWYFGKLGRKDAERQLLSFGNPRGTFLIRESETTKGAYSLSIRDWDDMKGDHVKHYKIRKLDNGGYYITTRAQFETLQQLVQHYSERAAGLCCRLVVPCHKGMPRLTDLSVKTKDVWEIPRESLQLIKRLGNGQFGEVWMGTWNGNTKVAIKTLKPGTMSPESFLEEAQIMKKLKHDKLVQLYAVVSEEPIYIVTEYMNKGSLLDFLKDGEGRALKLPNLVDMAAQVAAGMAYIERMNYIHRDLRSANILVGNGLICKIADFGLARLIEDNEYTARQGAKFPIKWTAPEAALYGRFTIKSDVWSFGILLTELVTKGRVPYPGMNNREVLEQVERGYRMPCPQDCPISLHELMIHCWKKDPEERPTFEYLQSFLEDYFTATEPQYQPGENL
Procedure, shortened: as §1

[3] = molecular target: T3, scanMAX Kinase assay panel (Homo sapiens, UniProt P49759); conditions: CLK1; 1 uM; read-out: Percent Control (%)
T3 construct: purchased DiscoverX
T3 sequence (P49759 whole entry): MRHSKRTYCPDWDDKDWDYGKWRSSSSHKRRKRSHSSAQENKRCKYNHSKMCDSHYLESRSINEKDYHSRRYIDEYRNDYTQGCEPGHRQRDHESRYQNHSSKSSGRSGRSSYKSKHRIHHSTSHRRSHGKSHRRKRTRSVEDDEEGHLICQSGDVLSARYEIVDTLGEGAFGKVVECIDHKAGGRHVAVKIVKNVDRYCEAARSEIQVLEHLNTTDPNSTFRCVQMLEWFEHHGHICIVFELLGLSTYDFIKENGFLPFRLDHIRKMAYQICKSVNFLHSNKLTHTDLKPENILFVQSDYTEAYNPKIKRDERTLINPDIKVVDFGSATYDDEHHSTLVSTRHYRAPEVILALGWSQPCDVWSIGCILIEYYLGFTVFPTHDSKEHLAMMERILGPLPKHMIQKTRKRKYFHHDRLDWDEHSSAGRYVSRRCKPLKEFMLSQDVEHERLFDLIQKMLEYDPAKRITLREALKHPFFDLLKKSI
Procedure, shortened: as §1

[4] = molecular target: T4, scanMAX Kinase assay panel (Homo sapiens, UniProt Q05655); conditions: PRKCD; 1 uM; read-out: Percent Control (%)
T4 construct: purchased DiscoverX
T4 sequence (Q05655 whole entry): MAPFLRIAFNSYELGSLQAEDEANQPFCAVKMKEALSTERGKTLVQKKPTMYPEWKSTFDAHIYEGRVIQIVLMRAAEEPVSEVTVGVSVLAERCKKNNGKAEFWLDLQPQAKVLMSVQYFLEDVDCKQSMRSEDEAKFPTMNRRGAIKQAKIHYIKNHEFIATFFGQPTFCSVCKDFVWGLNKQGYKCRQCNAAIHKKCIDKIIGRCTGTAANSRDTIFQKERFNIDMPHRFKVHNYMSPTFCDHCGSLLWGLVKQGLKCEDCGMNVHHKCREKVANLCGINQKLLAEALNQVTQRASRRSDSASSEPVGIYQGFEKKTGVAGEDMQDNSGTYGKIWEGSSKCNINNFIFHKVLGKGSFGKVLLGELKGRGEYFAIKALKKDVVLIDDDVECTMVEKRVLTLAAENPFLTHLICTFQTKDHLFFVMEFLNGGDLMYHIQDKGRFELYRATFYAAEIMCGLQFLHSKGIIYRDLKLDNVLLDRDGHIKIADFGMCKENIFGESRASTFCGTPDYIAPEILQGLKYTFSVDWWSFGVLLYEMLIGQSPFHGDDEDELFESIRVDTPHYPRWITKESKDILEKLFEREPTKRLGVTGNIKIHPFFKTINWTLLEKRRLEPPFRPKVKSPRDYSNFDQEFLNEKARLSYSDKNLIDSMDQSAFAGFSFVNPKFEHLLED
Procedure, shortened: as §1

[5] = molecular target: T5, scanMAX Kinase assay panel (Homo sapiens, UniProt Q15759); conditions: p38-beta; 1 uM; read-out: Percent Control (%)
T5 construct: purchased DiscoverX
T5 sequence (Q15759 whole entry): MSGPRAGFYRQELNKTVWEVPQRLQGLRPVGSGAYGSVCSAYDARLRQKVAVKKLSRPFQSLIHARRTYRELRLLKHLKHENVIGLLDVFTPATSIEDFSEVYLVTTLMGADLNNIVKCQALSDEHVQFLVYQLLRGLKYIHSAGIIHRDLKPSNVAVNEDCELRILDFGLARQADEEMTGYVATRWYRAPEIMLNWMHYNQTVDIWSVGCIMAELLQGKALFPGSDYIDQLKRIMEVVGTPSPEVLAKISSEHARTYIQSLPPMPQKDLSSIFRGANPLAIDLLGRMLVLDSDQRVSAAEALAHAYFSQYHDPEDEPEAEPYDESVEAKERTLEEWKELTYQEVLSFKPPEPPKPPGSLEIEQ
Procedure, shortened: as §1

[6] = molecular target: T6, scanMAX Kinase assay panel (Homo sapiens, UniProt Q6P2M8); conditions: CAMK1B; 1 uM; read-out: Percent Control (%)
T6 construct: purchased DiscoverX
T6 sequence (Q6P2M8 whole entry): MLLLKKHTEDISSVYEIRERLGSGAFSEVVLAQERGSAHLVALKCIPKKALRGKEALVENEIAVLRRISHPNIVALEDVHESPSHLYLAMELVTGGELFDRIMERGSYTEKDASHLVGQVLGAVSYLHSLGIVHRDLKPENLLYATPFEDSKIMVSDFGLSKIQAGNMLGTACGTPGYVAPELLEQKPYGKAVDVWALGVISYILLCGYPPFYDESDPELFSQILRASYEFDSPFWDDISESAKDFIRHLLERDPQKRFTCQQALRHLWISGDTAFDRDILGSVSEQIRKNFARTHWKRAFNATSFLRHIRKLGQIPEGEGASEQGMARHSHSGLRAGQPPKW
Procedure, shortened: as §1

[7] = molecular target: T7, scanMAX Kinase assay panel (Homo sapiens, UniProt Q8TBX8); conditions: PIP5K2C; 1 uM; read-out: Percent Control (%)
T7 construct: purchased DiscoverX
T7 sequence (Q8TBX8 1-421): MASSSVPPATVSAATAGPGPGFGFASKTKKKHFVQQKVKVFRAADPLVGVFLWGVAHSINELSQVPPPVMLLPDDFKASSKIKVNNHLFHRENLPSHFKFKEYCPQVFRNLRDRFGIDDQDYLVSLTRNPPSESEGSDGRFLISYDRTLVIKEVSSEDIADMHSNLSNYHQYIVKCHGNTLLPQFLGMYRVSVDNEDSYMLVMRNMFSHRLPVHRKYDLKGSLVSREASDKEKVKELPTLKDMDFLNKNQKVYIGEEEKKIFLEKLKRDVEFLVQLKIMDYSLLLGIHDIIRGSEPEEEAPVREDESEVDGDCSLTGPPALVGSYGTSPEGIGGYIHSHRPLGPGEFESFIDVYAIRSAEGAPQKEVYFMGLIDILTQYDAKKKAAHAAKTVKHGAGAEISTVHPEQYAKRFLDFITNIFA
Procedure, shortened: as §1

[8] = molecular target: T8, scanMAX Kinase assay panel (Homo sapiens, UniProt Q8TDR2); conditions: STK35; 1 uM; read-out: Percent Control (%)
T8 construct: purchased DiscoverX
T8 sequence (Q8TDR2 whole entry): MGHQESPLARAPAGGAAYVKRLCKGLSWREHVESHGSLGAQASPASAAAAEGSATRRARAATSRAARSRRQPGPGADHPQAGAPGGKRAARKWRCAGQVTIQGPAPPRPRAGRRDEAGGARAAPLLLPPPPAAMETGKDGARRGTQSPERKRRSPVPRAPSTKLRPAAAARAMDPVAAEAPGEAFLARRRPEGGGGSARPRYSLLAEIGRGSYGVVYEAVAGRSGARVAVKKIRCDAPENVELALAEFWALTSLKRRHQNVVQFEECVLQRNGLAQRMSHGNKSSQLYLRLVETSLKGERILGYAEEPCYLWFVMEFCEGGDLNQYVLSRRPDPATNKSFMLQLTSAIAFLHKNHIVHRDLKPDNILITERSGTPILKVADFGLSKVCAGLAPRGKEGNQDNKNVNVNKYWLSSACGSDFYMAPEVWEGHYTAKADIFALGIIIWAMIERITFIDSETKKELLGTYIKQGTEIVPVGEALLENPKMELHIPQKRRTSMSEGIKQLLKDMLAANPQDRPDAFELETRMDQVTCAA
Procedure, shortened: as §1

[9] = molecular target: T9, scanMAX Kinase assay panel (Homo sapiens, UniProt Q9P286); conditions: PAK7; 1 uM; read-out: Percent Control (%)
T9 construct: purchased DiscoverX
T9 sequence (Q9P286 whole entry): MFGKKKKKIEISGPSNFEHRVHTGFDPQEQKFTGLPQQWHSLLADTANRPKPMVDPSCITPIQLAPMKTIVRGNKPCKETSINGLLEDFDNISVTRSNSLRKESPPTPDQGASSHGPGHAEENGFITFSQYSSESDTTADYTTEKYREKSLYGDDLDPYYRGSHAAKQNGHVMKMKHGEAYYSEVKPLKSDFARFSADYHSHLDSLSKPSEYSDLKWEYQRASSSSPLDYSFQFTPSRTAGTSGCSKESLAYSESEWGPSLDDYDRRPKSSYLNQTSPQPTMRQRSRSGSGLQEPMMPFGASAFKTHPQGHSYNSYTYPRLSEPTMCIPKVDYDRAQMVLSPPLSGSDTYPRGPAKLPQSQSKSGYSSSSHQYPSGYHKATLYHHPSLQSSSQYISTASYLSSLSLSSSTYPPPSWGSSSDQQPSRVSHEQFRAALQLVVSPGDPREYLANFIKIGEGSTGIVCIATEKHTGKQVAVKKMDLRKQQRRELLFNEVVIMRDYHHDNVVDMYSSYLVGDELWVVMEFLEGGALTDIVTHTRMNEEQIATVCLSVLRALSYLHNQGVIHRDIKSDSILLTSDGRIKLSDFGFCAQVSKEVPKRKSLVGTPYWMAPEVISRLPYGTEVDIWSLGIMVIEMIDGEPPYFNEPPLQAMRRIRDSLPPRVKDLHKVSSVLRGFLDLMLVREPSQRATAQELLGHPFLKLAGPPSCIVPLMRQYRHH
Procedure, shortened: as §1

Structure (SMILES)	remaining binding at 1 µM [1] [%]	remaining binding at 1 µM [2] [%]	remaining binding at 1 µM [3] [%]	remaining binding at 1 µM [4] [%]	remaining binding at 1 µM [5] [%]	remaining binding at 1 µM [6] [%]	remaining binding at 1 µM [7] [%]	remaining binding at 1 µM [8] [%]	remaining binding at 1 µM [9] [%]
Cc1ccc(NC(=O)C2(C(=O)Nc3ccc(F)cc3)CC2)cc1C#Cc1cnc2c(Nc3cnn(C(C)C)c3)cccn12 [Example 78]	100	84	79	100	88	100	95	100	100
Cc1cn(-c2cc(NC(=O)c3ccc(C)c(C#Cc4cnc5c(Nc6cnn(C)c6)cccn45)c3)cc(C(F)(F)F)c2)cn1 [Example 12, 4-methyl-N-(3-(4-methyl-1H-imidazol-1-yl)-5-(trifluoromethyl)phenyl)-3-((8-((1-methyl-1H-pyrazol-4-yl)amino)imidazo[1,2-a]pyridin-3-yl)ethynyl)benzamide]	81	15	82	81	6	100	73	58	100
Cc1ccc(C(=O)Nc2ccc(CN3CCN(C)CC3)c(C(F)(F)F)c2)cc1C#Cc1cnc2c(Nc3cnn(C)c3)cccn12 [Example 1, 4-methyl-3-((8-((1-methyl-1H-pyrazol-4-yl)amino)imidazo[1,2-a]pyridin-3-yl)ethynyl)-N-(4-((4-methylpiperazin-1-yl)methyl)-3-(trifluoromethyl)phenyl)benzamide]	71	1	25	61	0	62	97	33	100
